ChEMBL document CHEMBL5463725, “Data for DCP probe BAY-277” (2023)
Calls of active or inactive are those of the source. No cut-off for these calls is given here.

Assays:
[1] = molecular target: Tyrosine-protein kinase Blk (Homo sapiens) (UniProt P51451); experiment: Inhibition of Blk(h) at 10.0 µM in the Eurofins Kinase panel; conditions: Compound concentration 10.0 uM
[2] = molecular target: Alpha-1B adrenergic receptor (Homo sapiens) (UniProt P35368); conditions: Compound concentration 10.0 uM
Histamine H3 receptor = Histamine H3 receptor (Homo sapiens, UniProt Q9Y5N1); conditions: Compound concentration 10.0 uM
[3] = molecular target: Delta-type opioid receptor (Homo sapiens) (UniProt P41143); conditions: Compound concentration 10.0 uM
[4] = molecular target: GABA B receptor (Rattus norvegicus) (UniProt Q9Z0U4+O88871); experiment: Inhibition of GABAB, Non-Selective at 10.0 µM in the Eurofins Panlabs Safety Screen; format: protein-complex assay; conditions: Compound concentration 10.0 uM
[5] = molecular target: Methionine aminopeptidase 2 (Homo sapiens, UniProt P50579); experiment: Degradation in HT1080 cells (CE) (Capillary electrophoresis (CE)); format: functional, cell-based; conditions: ht-1080
[6] = molecular target: Tyrosine-protein kinase SYK (Homo sapiens) (UniProt P43405); experiment: Inhibition of Syk(h) at 10.0 µM in the Eurofins Kinase panel; conditions: Compound concentration 10.0 uM
[7] = molecular target: Sigma non-opioid intracellular receptor 1 (Homo sapiens) (UniProt Q99720); conditions: Compound concentration 10.0 uM
[8] = molecular target: Tyrosine-protein kinase HCK (Homo sapiens) (UniProt P08631); experiment: Inhibition of Hck(h) at 10.0 µM in the Eurofins Kinase panel; conditions: Compound concentration 10.0 uM
[9] = molecular target: T1, Muscarinic acetylcholine receptor M1 (Homo sapiens, UniProt P11229); experiment: GPCRScan assay: inhibition of M1; set-up: radioligand conc. used [nm] 0.3 – 1.2, parental cells stable CHO
T1 sequence (P11229 whole entry): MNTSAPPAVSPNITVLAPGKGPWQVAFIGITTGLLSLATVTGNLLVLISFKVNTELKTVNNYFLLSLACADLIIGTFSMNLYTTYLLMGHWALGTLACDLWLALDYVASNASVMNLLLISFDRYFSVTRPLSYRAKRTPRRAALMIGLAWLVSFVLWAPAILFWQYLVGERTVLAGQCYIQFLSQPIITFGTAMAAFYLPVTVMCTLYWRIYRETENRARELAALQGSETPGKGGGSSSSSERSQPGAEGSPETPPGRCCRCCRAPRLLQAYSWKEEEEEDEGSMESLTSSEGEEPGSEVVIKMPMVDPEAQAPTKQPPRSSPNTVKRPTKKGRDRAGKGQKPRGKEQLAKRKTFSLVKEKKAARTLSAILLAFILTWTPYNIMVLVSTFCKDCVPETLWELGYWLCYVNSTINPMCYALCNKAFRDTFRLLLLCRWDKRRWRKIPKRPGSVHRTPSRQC

[10] = molecular target: Delta-type opioid receptor (Homo sapiens) (UniProt P41143); experiment: Inhibition of Opiate delta1 (OP1, DOP) at 10.0 µM in the Eurofins Panlabs Safety Screen; conditions: Compound concentration 10.0 uM
[11] = molecular target: Sodium/potassium-transporting ATPase (Sus scrofa) (UniProt P05027+P05024+D2WKD8+D2WKD7+F1ST41); experiment: Inhibition of ATPase, Na+/K+, Heart, Pig at 10.0 µM in the Eurofins Panlabs Safety Screen; format: protein-complex assay; conditions: Compound concentration 10.0 uM
[12] = molecular target: Adenosine Transporter (Cavia porcellus) (UniProt H0V4R7+H0UUG1+H0V3Z5); experiment: Inhibition of Transporter, Adenosine at 10.0 µM in the Eurofins Panlabs Safety Screen; format: protein assay; conditions: Compound concentration 10.0 uM
[13] = molecular target: Adenosine receptor A1 (Homo sapiens) (UniProt P30542); experiment: Inhibition of Adenosine A1 at 10.0 µM in the Eurofins Panlabs Safety Screen; conditions: Compound concentration 10.0 uM
[14] = molecular target: Type-2 angiotensin II receptor (Homo sapiens) (UniProt P50052); experiment: Inhibition of Angiotensin AT2 at 10.0 µM in the Eurofins Panlabs Safety Screen; conditions: Compound concentration 10.0 uM
[15] = molecular target: Nitric oxide synthase 1 (Homo sapiens) (UniProt P29475); experiment: Inhibition of Nitric Oxide Synthase, Neuronal (nNOS) at 10.0 µM in the Eurofins Panlabs Safety Screen; conditions: Rattus norvegicus; Compound concentration 10.0 uM
[16] = molecular target: Acetylcholinesterase (Homo sapiens) (UniProt P22303); experiment: Inhibition of Cholinesterase, Acetyl, ACES at 10.0 µM in the Eurofins Panlabs Safety Screen; conditions: Compound concentration 10.0 uM
[17] = molecular target: T2, 5-hydroxytryptamine receptor 1A (Homo sapiens) (UniProt P08908); conditions: Compound concentration 10.0 uM
T2 sequence (whole entry): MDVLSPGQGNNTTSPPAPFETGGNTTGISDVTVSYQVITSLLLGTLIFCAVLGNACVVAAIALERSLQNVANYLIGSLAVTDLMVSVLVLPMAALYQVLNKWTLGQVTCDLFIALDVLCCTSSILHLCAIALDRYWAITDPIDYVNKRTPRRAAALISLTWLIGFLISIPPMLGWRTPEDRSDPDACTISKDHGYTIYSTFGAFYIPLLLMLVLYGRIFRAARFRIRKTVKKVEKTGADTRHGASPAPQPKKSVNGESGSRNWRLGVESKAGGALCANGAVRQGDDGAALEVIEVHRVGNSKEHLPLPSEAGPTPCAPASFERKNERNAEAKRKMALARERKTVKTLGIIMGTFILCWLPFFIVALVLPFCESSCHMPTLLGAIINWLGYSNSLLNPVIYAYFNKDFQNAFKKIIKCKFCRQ

[18] = molecular target: Death-associated protein kinase 3 (Homo sapiens) (UniProt O43293); experiment: Inhibition of ZIPK(h) at 10.0 µM in the Eurofins Kinase panel; conditions: Compound concentration 10.0 uM
[19] = molecular target: Sodium-dependent serotonin transporter (Homo sapiens) (UniProt P31645); experiment: Inhibition of Transporter, Serotonin (5-Hydroxytryptamine) (SERT) at 10.0 µM in the Eurofins Panlabs Safety Screen; conditions: Compound concentration 10.0 uM
[20] = molecular target: Beta-2 adrenergic receptor (Homo sapiens) (UniProt P07550); conditions: Compound concentration 10.0 uM
[21] = molecular target: Beta-2 adrenergic receptor (Homo sapiens) (UniProt P07550); experiment: Inhibition of Adrenergic beta2 at 10.0 µM in the Eurofins Panlabs Safety Screen; conditions: Compound concentration 10.0 uM
[22] = molecular target: Alpha-1A adrenergic receptor (Homo sapiens) (UniProt P35348); conditions: Compound concentration 10.0 uM
[23] = molecular target: Adenosine receptor A3 (Homo sapiens) (UniProt P0DMS8); experiment: Inhibition of Adenosine A3 at 10.0 µM in the Eurofins Panlabs Safety Screen; conditions: Compound concentration 10.0 uM
[24] = molecular target: GABA-A receptor; anion channel (Rattus norvegicus) (UniProt O09028+P15431+P18506+P18508+P19969+P20236+P23574+P23576+P28471+P28473+P30191+P62813+P63079+P63138+Q91ZM7+Q9ES14); experiment: Inhibition of GABAA, Flunitrazepam, Central at 10.0 µM in the Eurofins Panlabs Safety Screen; format: protein-complex assay; conditions: Compound concentration 10.0 uM
[25] = molecular target: Beta-adrenergic receptor kinase 1 (Homo sapiens) (UniProt P25098); experiment: Inhibition of GRK2(h) at 10.0 µM in the Eurofins Kinase panel; conditions: Compound concentration 10.0 uM
[26] = molecular target: 5-hydroxytryptamine receptor 2B (Homo sapiens) (UniProt P41595); conditions: Compound concentration 10.0 uM
5-hydroxytryptamine receptor 2B (Homo sapiens), sequence (P41595 whole entry): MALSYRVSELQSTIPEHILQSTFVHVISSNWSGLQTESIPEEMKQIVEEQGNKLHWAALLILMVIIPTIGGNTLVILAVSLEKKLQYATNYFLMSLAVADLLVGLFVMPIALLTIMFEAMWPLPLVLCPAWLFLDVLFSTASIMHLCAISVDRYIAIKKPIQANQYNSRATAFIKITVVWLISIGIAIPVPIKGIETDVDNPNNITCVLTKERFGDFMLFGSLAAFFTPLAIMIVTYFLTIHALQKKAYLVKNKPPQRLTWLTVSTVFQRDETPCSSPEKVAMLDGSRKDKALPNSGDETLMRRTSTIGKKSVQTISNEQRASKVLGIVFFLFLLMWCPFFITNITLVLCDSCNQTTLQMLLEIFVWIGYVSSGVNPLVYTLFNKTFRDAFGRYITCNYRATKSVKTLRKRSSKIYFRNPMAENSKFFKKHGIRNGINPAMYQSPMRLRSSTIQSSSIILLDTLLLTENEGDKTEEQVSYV

Sigma non-opioid intracellular receptor 1 (Homo sapiens), sequence (Q99720 whole entry): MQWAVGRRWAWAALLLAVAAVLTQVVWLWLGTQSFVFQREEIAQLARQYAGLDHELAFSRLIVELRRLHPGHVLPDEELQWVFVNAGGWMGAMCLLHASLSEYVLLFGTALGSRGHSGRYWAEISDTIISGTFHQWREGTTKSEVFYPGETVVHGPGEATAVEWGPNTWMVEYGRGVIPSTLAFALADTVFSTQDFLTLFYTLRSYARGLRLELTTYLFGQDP
Alpha-1A adrenergic receptor (Homo sapiens), sequence (P35348 whole entry): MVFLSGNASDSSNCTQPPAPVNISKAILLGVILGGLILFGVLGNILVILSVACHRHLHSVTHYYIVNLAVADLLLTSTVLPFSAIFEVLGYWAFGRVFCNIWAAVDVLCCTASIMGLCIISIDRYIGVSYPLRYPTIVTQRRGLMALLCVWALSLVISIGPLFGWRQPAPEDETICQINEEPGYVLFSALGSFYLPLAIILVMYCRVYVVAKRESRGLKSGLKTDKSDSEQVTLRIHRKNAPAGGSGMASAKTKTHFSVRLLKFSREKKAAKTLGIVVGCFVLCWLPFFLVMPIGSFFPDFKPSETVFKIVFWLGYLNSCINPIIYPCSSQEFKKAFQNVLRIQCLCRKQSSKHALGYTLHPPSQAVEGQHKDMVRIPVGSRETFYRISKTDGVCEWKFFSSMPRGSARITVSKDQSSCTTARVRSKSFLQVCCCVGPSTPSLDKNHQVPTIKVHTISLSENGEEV
Beta-2 adrenergic receptor (Homo sapiens), sequence (P07550 whole entry, looked up): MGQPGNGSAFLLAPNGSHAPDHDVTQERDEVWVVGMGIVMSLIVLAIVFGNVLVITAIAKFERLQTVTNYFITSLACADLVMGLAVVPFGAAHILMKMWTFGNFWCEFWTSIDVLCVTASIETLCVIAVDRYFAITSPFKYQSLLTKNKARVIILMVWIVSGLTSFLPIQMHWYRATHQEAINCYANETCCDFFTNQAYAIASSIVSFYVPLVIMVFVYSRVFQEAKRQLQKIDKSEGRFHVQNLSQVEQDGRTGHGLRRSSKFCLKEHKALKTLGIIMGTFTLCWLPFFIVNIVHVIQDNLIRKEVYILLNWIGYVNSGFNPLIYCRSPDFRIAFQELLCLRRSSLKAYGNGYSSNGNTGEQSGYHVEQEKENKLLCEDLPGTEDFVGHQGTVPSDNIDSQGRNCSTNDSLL
Delta-type opioid receptor (Homo sapiens), sequence (P41143 whole entry): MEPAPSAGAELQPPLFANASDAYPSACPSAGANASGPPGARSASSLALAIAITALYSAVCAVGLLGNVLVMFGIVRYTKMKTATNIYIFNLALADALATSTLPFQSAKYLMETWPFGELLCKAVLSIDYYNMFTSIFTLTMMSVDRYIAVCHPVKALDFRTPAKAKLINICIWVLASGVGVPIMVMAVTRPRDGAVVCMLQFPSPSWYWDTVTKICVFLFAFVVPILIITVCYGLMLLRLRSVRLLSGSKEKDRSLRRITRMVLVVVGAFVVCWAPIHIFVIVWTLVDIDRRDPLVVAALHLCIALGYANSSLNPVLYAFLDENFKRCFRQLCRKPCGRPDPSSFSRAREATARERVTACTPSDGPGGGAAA
Histamine H3 receptor, sequence (Q9Y5N1 whole entry): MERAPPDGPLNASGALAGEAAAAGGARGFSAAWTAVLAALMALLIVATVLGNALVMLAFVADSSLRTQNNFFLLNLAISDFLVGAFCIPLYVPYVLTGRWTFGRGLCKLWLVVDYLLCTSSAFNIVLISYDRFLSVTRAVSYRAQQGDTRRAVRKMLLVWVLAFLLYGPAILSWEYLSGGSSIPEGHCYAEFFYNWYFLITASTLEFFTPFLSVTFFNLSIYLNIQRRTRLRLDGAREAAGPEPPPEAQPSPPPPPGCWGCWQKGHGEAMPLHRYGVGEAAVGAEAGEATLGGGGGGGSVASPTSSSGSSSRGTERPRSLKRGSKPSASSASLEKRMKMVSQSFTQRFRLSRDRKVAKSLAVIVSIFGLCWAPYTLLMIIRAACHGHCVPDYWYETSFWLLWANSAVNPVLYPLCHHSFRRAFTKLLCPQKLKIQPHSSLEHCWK
Alpha-1B adrenergic receptor (Homo sapiens), sequence (P35368 whole entry): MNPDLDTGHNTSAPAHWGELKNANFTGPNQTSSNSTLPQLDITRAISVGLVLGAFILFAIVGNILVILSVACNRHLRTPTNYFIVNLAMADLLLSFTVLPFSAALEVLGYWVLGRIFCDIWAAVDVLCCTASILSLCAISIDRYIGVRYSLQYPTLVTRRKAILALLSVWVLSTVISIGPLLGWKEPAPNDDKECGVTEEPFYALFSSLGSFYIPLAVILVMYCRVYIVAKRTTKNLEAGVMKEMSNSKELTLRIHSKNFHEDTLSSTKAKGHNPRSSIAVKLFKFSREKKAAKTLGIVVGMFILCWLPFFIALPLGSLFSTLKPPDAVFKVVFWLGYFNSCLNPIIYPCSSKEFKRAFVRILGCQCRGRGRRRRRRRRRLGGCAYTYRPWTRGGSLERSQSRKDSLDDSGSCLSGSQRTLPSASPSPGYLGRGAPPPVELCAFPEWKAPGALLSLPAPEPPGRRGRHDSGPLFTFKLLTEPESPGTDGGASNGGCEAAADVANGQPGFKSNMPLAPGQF
Death-associated protein kinase 3 (Homo sapiens), sequence (O43293 whole entry, looked up): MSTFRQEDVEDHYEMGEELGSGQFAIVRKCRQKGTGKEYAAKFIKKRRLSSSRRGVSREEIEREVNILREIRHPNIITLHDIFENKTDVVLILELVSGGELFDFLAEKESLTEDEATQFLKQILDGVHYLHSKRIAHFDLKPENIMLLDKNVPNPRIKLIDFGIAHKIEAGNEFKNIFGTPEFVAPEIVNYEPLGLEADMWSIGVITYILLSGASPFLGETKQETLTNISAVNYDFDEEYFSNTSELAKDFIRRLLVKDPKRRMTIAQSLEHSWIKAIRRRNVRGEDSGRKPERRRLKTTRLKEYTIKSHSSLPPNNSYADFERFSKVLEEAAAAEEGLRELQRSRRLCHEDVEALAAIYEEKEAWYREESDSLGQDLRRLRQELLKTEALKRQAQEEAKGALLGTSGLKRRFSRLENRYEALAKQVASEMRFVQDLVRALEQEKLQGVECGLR
Nitric oxide synthase 1 (Homo sapiens), sequence (P29475 whole entry): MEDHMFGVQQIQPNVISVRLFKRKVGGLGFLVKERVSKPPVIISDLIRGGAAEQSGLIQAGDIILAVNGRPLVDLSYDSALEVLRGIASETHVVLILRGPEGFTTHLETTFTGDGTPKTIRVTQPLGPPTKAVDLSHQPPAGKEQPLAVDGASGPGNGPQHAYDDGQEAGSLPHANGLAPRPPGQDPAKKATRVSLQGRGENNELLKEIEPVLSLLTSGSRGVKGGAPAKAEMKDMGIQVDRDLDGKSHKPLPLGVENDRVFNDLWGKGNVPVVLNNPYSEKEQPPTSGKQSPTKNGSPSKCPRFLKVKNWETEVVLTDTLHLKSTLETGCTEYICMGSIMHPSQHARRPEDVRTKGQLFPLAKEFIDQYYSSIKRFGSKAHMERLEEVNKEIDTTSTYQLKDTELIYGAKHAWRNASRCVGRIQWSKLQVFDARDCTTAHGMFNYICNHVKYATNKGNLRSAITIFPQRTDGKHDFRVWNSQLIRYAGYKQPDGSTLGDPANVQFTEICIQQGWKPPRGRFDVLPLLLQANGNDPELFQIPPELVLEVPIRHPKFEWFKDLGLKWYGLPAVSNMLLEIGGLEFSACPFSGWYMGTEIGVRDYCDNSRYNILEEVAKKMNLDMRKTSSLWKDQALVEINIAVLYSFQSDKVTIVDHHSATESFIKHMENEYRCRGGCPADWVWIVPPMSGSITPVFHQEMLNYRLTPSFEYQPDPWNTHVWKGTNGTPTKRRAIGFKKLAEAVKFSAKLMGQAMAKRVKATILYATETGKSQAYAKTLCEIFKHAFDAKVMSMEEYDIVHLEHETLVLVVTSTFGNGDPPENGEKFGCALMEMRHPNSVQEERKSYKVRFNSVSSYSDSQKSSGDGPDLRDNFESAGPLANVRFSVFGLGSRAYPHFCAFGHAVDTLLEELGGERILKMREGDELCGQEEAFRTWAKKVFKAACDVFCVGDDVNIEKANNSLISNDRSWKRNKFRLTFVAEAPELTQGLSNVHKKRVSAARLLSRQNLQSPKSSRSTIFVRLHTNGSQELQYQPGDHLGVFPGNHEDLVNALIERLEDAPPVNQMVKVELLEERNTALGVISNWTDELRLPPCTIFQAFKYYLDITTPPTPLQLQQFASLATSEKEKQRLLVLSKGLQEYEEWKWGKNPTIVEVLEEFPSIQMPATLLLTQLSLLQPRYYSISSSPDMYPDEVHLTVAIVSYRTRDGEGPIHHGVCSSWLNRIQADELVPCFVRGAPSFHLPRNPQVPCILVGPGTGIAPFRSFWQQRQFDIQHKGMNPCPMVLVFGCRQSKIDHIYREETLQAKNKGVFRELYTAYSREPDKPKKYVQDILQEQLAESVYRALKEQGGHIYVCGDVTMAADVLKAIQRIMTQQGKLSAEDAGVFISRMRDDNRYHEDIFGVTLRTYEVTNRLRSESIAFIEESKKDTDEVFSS

O=C1NCCCC1N1Cc2cc(C3CCN(C(=O)CCCCCN4CCC(c5ccc(Oc6nn7cnnc7c7c6CCCC7)cc5)CC4)CC3)ccc2C1=O (stereo unspecified)
inhibition [1]: 26.1%
inhibition [2]: 2.86%
inhibition (Histamine H3 receptor): 91.5%
inhibition [3]: 19.5%
inhibition [4]: 22%
DC50 [5]: > 1000 nM (not active)
inhibition [6]: 20.4%
inhibition [7]: 28.4%
inhibition [8]: 17.9%
Ki ([9]; read-out: Ki): 2190 nM
Ki ([9]; read-out: pKi (converted)): 2190 nM
inhibition [10]: 7%
inhibition [11]: 1%
inhibition [12]: 44%
inhibition [13]: 3%
inhibition [14]: 17%
inhibition [15]: -4%
inhibition [16]: 38%
inhibition [17]: 35.3%
inhibition [18]: 15.9%
inhibition [19]: 22%
inhibition [20]: -7.69%
inhibition [21]: 13%
inhibition [22]: -1.93%
inhibition [23]: 21%
inhibition [24]: 15%
inhibition [25]: 15.1%
inhibition [26]: -7.97%

O=C1CCC(N2Cc3cc(C4CCN(C(=O)CCCCCN5CCC(c6ccc(Oc7nn8cnnc8c8c7CCCC8)cc6)CC5)CC4)ccc3C2=O)C(=O)N1 (stereo unspecified)
inhibition [1]: 13.9%
inhibition [2]: 6.88%
inhibition (Histamine H3 receptor): 100%
inhibition [3]: 17.5%
inhibition [4]: 15%
DC50 [5]: 8.93 nM (active)
inhibition [6]: 25%
inhibition [7]: 28.9%
inhibition [8]: 12.8%
Ki ([9]; read-out: Ki): 1670 nM
Ki ([9]; read-out: pKi (converted)): 1660 nM
inhibition [10]: 0%
inhibition [11]: -7%
inhibition [12]: 40%
inhibition [13]: 7%
inhibition [14]: 13%
inhibition [15]: 9%
inhibition [16]: 45%
inhibition [17]: 7.96%
inhibition [18]: 11.7%
inhibition [19]: 32%
inhibition [20]: 2.82%
inhibition [21]: -4%
inhibition [22]: 12.2%
inhibition [23]: 16%
inhibition [24]: 10%
inhibition [25]: 11.9%
inhibition [26]: 19.9%
